Laboratory results reported in ChEMBL document CHEMBL6153030, “Design, synthesis, and biological evaluation of novel pleuromutilin derivatives with methicillin-resistant Staphylococcus aureus -targeting phenol linker groups” (Eur J Med Chem, 2025).
Converted amounts (≈) assume the structure as drawn. The source made the active and inactive calls. The rule behind the calls is not given here.

Columns and labels:
[1] = tested on: Staphylococcus aureus; assay: In vivo antibacterial activity against methicillin-resistant Staphylococcus aureus ATCC43300 infected in Kunming mouse assessed as log reduction of bacterial load in lungs at 40 mg/kg, ip administered at 1 hr post-infection and measured within 48 hrs; type: functional
[2] = target: T1, 70S ribosome (Staphylococcus aureus) (UniProt Q2FW31+P0A0H0+Q2FW30+Q2FW19+Q2FYU5+Q2G2Q1+Q2FZ45+Q2FW15+Q2G111+Q2FW10+Q2FXY6+Q2FXZ7+Q2FZ25+Q2FW12+Q2FXK6+Q2FW23+Q2G113+P48940+Q2FW20+Q2FW39+Q2FYF9+Q2G0N9+P0A0F4+Q2FW38+Q2FW16+P0A0F8+Q2FW13+Q2FW33+Q2FW22+Q2FZ42+Q2G0P0+Q2FXQ1+Q2FXS8+Q2FW11+Q2FW08+Q2FW17+Q2FXT0+Q2FZ60+Q2FW14+P60430+P0A0G2+Q2FWD8+Q2FZF1+Q2FYU6+Q2FY22+Q2FUQ0+Q2FXQ0+Q2FW29+Q2FW06+Q2FW07+Q2FW18+Q2FW21+P48860+Q2G2T3); assay: Inhibition of ribosomal peptidyl transferase centre in methicillin-resistant Staphylococcus aureus ATCC43300 assessed as bacterial cell rupture at 4XMIC by scanning electron microscopy; type: functional
[3] = tested on: Staphylococcus aureus; assay: Bactericidal activity against methicillin-resistant Staphylococcus aureus ATCC 43300 assessed as bacterial killing at 6XMIC incubated for 96 hrs in broth followed by culturing on agar plate for 12 hrs by time-kill kinetics analysis; type: functional; settings: time 108 hrs
[4] = tested on: Staphylococcus aureus; assay: In vivo antibacterial activity against methicillin-resistant Staphylococcus aureus ATCC43300 infected in Kunming mouse assessed as increase in animal survival rate administered ip at 1 hr post-infection; type: functional; settings: ATCC43300, 1 h
[5] = tested on: Staphylococcus aureus; assay: Antibacterial activity against methicillin-resistant Staphylococcus aureus ATCC43300 assessed as inhibition of bacterial growth measured after 17 to 18 days; type: functional; settings: time 17-18 day
[6] = tested on: Streptococcus pneumoniae; assay: Antibacterial activity against Streptococcus pneumoniae ATCC 49619 assessed as inhibition of bacterial growth incubated for 96 hrs by broth microdilution method; type: functional
[7] = tested on: Staphylococcus aureus; assay: Antibacterial activity against Staphylococcus aureus ATCC 29213 assessed as inhibition of bacterial growth incubated for 96 hrs by broth microdilution method; type: functional
[8] = tested on: Staphylococcus aureus; assay: Antibacterial activity against methicillin-resistant Staphylococcus aureus ATCC43300 assessed as inhibition of bacterial growth incubated for 96 hrs by broth microdilution method; type: functional
[9] = target: T1, 70S ribosome (Staphylococcus aureus); assay: Inhibition of ribosomal peptidyl transferase centre in methicillin-resistant Staphylococcus aureus ATCC43300 assessed as inhibition of bacterial cell division at 4XMIC by scanning electron microscopy; type: functional
[10] = tested on: Staphylococcus aureus; assay: In vivo antibacterial activity against methicillin-resistant Staphylococcus aureus ATCC43300 infected in Kunming mouse assessed as decrease in lung lesions by measuring reduced congestion, hemorrhage and inflammatory cell infiltration at 40 mg/kg, ip administered at 1 hr post-infection; type: functional, organism-based
[11] = Toxicity against Zebrafish assessed as reduction of survival of embryos measured after 96 hrs; set-up: species or system Danio rerio; settings: in vivo
[12] = tested on: Staphylococcus epidermidis; assay: Antibacterial activity against methicillin-resistant Staphylococcus epidermidis ATCC 51625 assessed as inhibition of bacterial growth incubated for 96 hrs by broth microdilution method; type: functional
[13] = tested on: Staphylococcus aureus; assay: Bactericidal activity against methicillin-resistant Staphylococcus aureus ATCC43300 assessed as bacterial killing at 3XMIC incubated for 96 hrs in broth followed by culturing on agar plate for 4 hrs by time-kill kinetics analysis; type: functional; settings: time 100 hrs
[14] = tested on: HEK293; assay: Cytotoxicity against HEK293 cells assessed as reduction in cell survival upto 120 ug/ml incubated for 6 hrs by CCK8 assay; type: toxicity, cell-based; settings: human, hek293, 6 h, dose < 120 µg/ml
[15] = Toxicity against rabbit red blood cells assessed as hemolysis rate at 100 ug/ml by absorbance based analysis; type: cell-based, Oryctolagus cuniculus, Erythrocyte; settings: at 100 µg/mL, read-out: Activity
[16] = tested on: Staphylococcus aureus; assay: Bactericidal activity against methicillin-resistant Staphylococcus aureus ATCC 43300 assessed as log reduction of bacterial colonies at 3XMIC incubated for 96 hrs in broth followed by culturing on agar plate for 4 hrs by time-kill kinetics analysis; type: functional; settings: time 100 hrs
[17] = tested on: Staphylococcus aureus; assay: In vivo antibacterial activity against methicillin-resistant Staphylococcus aureus ATCC43300 infected in Kunming mouse assessed as decrease in bacterial load in lungs at 20 to 40 mg/kg, ip administered at 1 hr post-infection; type: functional, organism-based; settings: dose 20-40 mg/kg
[18] = tested on: HepG2; assay: Cytotoxicity against human HepG2 cells assessed as reduction in cell survival at 250 ug/ml incubated for 6 hrs by CCK8 assay; type: toxicity, cell-based; settings: hepg2, 6 h, dose 250 µg/ml
[19] = Toxicity against zebrafish embryo assessed as teratogenic effect at 128 ug/ml measured after 96 hrs by microscopic analysis; set-up: species or system Danio rerio; settings: in vivo, dose 128 µg/ml
[20] = tested on: Escherichia coli; assay: Antibacterial activity against Escherichia coli ATCC 25922 assessed as inhibition of bacterial growth incubated for 96 hrs by broth microdilution method; type: functional

For `C=C[C@]1(C)C[C@@H](OC(=O)CSc2ccccc2OCC(=O)N2CCS(=O)(=O)CC2)[C@]2(C)[C@H](C)CC[C@]3(CCC(=O)[C@H]32)[C@@H](C)[C@@H]1O`, which Activity [1] is on record?
The Activity was 3 log10CFU/ml.

What about the inhibition [2] of the same molecule?
The inhibition was “Active”.

What about the Activity [3] of the same molecule?
Its Activity is 99.99%.

What about the ED50 [4] of the same molecule?
Its ED50 is 6.48 mg/kg.

And the MIC [5]?
Its MIC is 8 µg/mL (≈ 12.1 µM).

What about the MIC [6] of the same molecule?
The MIC was 0.125 µg/mL (≈ 0.189 µM).

And the MIC [7]?
Its MIC is < 0.031 µg/mL.

And the MIC [8]?
The MIC was < 0.031 µg/mL.

And the inhibition [9]?
Its inhibition is “Active”.

And the Activity [10]?
Its Activity is “Active”.

What about the LC50 at 96 h [11] of the same molecule?
The LC50 at 96 h was 165 µg/mL (≈ 249 µM).

And the MIC [12]?
The MIC was < 0.031 µg/mL.

What about the Activity [13] of the same molecule?
The Activity was 99.9%.

And the Activity [14]?
Its Activity is “Toxic”.

What about the hemolysis at 100 ug/ml [15] of the same molecule?
The hemolysis at 100 ug/ml was < 15%.

What about the Activity [16] of the same molecule?
The Activity was -3.154 log10CFU/ml.

And the Activity [17]?
The Activity was “Dose-dependent-effect”.

What about the Activity [18] of the same molecule?
Its Activity is “Toxic”.

And the Activity [19]?
Its Activity is “Non-toxic”.

And the MIC [20]?
Its MIC is > 64 µg/mL.
